From patent publication US20210040111A1, “DRUGS TO TREAT OCULAR DISORDERS” (Graybug Vision, Inc., priority 2018, published 2021)
In brackets after ≈: the same amount, converted by molar mass. Read-outs that look alike come from different tables or passages of the source.

Tests used:
[1] = Determination of prodrug solubility (50 mg/mL target, HPLC of supernatant); assay type: physicochemical; settings: thermodynamic from solid
Procedure: For each test, approximately 5-10 mg was transferred to a 10 mL glass vial. Aqueous or organic solvent was added to each vial to achieve an overall concentration of 50 mg/mL. After vortexing aggressively for 2-3 minutes and sonicating in a bath sonicator for 5 minutes, undissolved drug was spun down at 1200×g for 5 minutes to generate a pellet. The supernatant was collected and filtered through a 0.2 μm nylon syringe filter into HPLC vials for drug content analysis. Drug concentration was determined by comparing against a standard calibration curve.

African green monkeys = settings: monkey, in vivo
[2] = DMSO, organic solvent or mixture, read-out: Solubility DMSO
[3] = organic solvent or mixture, DCM (dichloromethane), read-out: Solubility DCM
[4] = water, read-out: Solubility Water

Row | SMILES | solubility [1, 2] [mg/mL] | solubility [1, 3] [mg/mL] | solubility [1, 4] [mg/mL] | Ocular toxicity findings (African green monkeys)
1 | CCCCNc1cc(C(=O)O)cc(S(N)(=O)=O)c1Oc1ccccc1 [Bumetanide, reference compound] | 25 (≈ 68.6 mM) | 25 (≈ 68.6 mM) | < 0.1 | No ocular toxicity findings
2 | CCCCNc1cc(C(=O)O[C@@H](C)C(=O)O[C@@H](C)C(=O)O[C@@H](C)C(=O)O[C@@H](C)C(=O)OCC)cc(S(N)(=O)=O)c1Oc1ccccc1 [Compound 2, bumetanide-ethyl-PLA (n=4)] | > 100 | > 50 | < 0.1 | –
3 | CCOC(=O)[C@H](C)OC(=O)[C@H](C)OC(=O)[C@H](C)OC(=O)[C@H](C)OC(=O)c1cc(S(N)(=O)=O)c(Cl)cc1NCc1ccco1 [Compd 1, furosemide-ethyl-PLA (n=4)] | > 100 | > 50 | < 0.1 | –
4 | CCOC(=O)[C@H](C)OC(=O)[C@H](C)OC(=O)[C@H](C)OC(=O)[C@H](C)OC(=O)[C@H](C)OC(=O)[C@H](C)OC(=O)c1cc(S(N)(=O)=O)c(Cl)cc1NCc1ccco1 [Compound 5, furosemide-ethyl-PLA (n=6)] | > 100 | > 50 | < 0.1 | –
